Source: patent US20090209568A1, “Spiro [Benzopyran] or Spiro [Benzofuran] Derivatives Which Inhibit the Sigma Receptor” (priority 2006, published 2009)

Tests used:
σ1-receptor = molecular target: T1, σ1-receptor (Cavia porcellus, UniProt Q60492); assay: Sigma-1 receptor radioligand binding, [3H](+)pentazocine (Version A / Version B); design: species or system guinea pig; conditions: guinea pig brain membranes; for inhibition at 0.1 µM: compound 10^−7 M; for inhibition at 0.01 µM: compound 10^−8 M
T1 construct: guinea pig brains were homogenized in 10 vols; (w/v) of Tris-HCl 50 mM 0.32 M sucrose; from tissue; host or cells: guinea pig brain membranes
Description: Brain membrane preparation and binding assays for the σ1-receptor were performed as described (DeHaven-Hudkins et al., 1992) with some modifications. In brief, guinea pig brains were homogenized in 10 vols. (w/v) of Tris-HCl 50 mM 0.32 M sucrose, pH 7.4, with a Kinematica Polytron PT 3000 at 15000 r.p.m. for 30 s. The homogenate was centrifuged at 1000 g for 10 min at 4° C. and the supernatants collected and centrifuged again at 48000 g for 15 min at 4° C. The pellet was resuspended in 10 volumes of Tris-HCl buffer (50 mM, pH 7.4), incubated at 37° C. for 30 min, and centrifuged at 48000 g for 20 min at 4° C. Following this, the pellet was resuspended in fresh Tris-HCl buffer (50 mM, pH 7.4) and stored on ice until use.
Each assay tube contained 10 μL of [^3H](+)pentazocine (final concentration of 0.5 nM), 900 μL of the tissue suspension to a final assay volume of 1 mL and a final tissue concentration of approximately 30 mg tissue net weight/mL. Non-specific binding was defined by addition of a final concentration of 1 μM haloperidol. All tubes were incubated at 37° C. for 150 min before termination of the reaction by rapid filtration over Schleicher & Schuell GF 3362 glass fibre filters [previously soaked in a solution of 0.5% polyethylenimine for at least 1 h]. Filters were then washed with four times with 4 mL of cold Tris-HCl buffer (50 mM, pH 7.4). Following addition of scintillation cocktail, the samples were allowed to equilibrate overnight. The amount of bound radioactivity was determined by liquid scintillation spectrometry using a Wallac Winspectral 1414 liquid scintillation counter. Protein concentrations were determined by the method of Lowry et al. (1951).
In brief the σ1-receptor preparation was prepared from guinea pig brain. The brains were homogenized in 5 to 6 times of volume sucrose solution (0.32M) and homogenized. The homogenate was centrifuged at 2900 rpm, 4° C., 10 min). the supernatant was centrifuged again (23500×g, 4° C., 20 min). The pellet was resuspended in Tris-buffer, incubated for 30 min at room temperature and centrifuged f (23500×g, 4° C., 20 min). The pellet was resuspended in cold TRIS-buffer and homogenized. Then the protein content was measured (approx. 1.5 mg/mL) and the homogenate frozen at −80° C. for later use.
The radioligand used was [^3H]-(+)-Pentazocin in TRIS-buffer. In a volume of 200 μL 50 μL TRIS-buffer, 50 μL compound solution of varying concentration, 50 μL radioligand-solution (8 nM; resulting in 2 nM in the assay) and finally 50 μL of receptor preparation (approx. 1.5 mg/mL) were given into a well of a microplate equipped with a filter. The plate was closed and stirred for 2.5 h at 37° C. and 500 rpm. Following that the solvents were removed by a harvester through the filter. After rinsing with H2O the filter was measured in a scintillation counter ([^3H]-protocol).

[1] = test system: capsaicin-induced mechanical allodynia; assay: Effect on capsaicin in development of mechanical allodynia (von Frey filaments); assay type: in vivo; conditions: 16 mg/kg i.p., mice, 1 μg capsaicin into paw, von Frey mechanical stimulus
Description: This model uses the von-Frey Filaments and is a model to test the effects or symptoms of neuropathic pain, allodynia etc. […] The test protocol for all tests with von Frey filaments: After habituation mice were first treated with the test-compound (or solvent in controls). Then 1 μg capsaicin (1% DMSO) is injected into their paw resulting in developing pain in the effected paw. The effected paw is then treated with a mechanical stimulus and the latency time before the paw is withdrawn is measured.

T1 sequence (Q60492 whole entry): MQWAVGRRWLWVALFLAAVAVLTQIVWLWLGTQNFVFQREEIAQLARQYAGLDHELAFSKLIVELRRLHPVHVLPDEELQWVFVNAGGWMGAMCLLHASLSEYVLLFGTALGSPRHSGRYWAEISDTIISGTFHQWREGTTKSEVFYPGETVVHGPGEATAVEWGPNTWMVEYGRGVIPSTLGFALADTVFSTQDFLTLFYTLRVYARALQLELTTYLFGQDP

Structure (SMILES)	inhibition at 0.1 µM (σ1-receptor)	inhibition at 0.01 µM (σ1-receptor)	% of pain relief [1]
CCCCN1CCC2(C1)OC(OC)Cc1ccccc12 (mixture of isomers) [Example 22, cis/trans-1′-Butyl-3-methoxy-3,4-dihydrospiro[[2]benzopyran-1,3′-pyrrolidin]]	52%	29%	45.67±9.62%
COC1OC2(CCN(Cc3ccccc3)C2)c2ccccc21 (mixture of isomers) [Example 25, cis/trans-1′-Benzyl-3-methoxy-3H-spiro[[2]benzofuran-1,3′-pyrrolidin]]	88%	22.2%	44.28±9.49%
